{
  "source": "paper PMC6660985",
  "about": "(Biopolymers, 2019)",
  "key": {"C. neoformans": {"test_system": "C. neoformans", "details": "cited from earlier work"}, "[1]": {"test_system": "C. neoformans strain H99S", "assay": "Synergy testing", "type": "cell-based, Cryptococcus neoformans", "details": "for MIC: Cryptococcus neoformans, H99S, read-out: MIC-B, Drug Alone; for MIC-B, Combination: Drug B in combination with AEC5, average of three independent experiments; for FIC index (FICi): combination of the labelled Drug B with AEC5 (Drug A); for interaction with AEC5 by FICi: combination of the labelled drug with AEC5; for change of the drug's MIC when combined with AEC5: drop of MIC, combination versus alone"}},
  "data": [
    {"compound": "OC(Cn1cncn1)(Cn1cncn1)c1ccc(F)cc1F", "note": "[Fluconazole, fluconazole]", "values": [
      {"measurement": "concentration at which the compound becomes fungicidal", "setting": "C. neoformans; against C. neoformans, primarily fungistatic below", "result": "> 8", "unit": "x MIC"},
      {"measurement": "time for 50% reduction in fungal growth", "setting": "C. neoformans; fluconazole against C. neoformans", "result": "48 to 72", "unit": "h"},
      {"measurement": "MIC", "setting": "[1]", "result": 8, "unit": "µg/mL"},
      {"measurement": "MIC-B, Combination", "setting": "[1]", "result": 2, "unit": "µg/mL"},
      {"measurement": "FIC index (FICi)", "setting": "[1]", "result": 0.75},
      {"measurement": "interaction with AEC5 by FICi", "setting": "[1]", "result": "indifferent (0.5 ≤ FICi ≤ 4 indifferent)"},
      {"measurement": "change of the drug's MIC when combined with AEC5", "setting": "[1]", "result": "four-fold"}
    ]},
    {"compound": "C[C@@H]1[C@H](O)[C@@H](C)/C=C/C=C/C=C/C=C/C=C/C=C/C=C/[C@H](O[C@@H]2O[C@H](C)[C@@H](O)[C@H](N)[C@@H]2O)C[C@@H]2O[C@](O)(C[C@@H](O)C[C@@H](O)[C@H](O)CC[C@@H](O)C[C@@H](O)CC(=O)O[C@H]1C)C[C@H](O)[C@H]2C(=O)O", "note": "[Amphotericin B, amphotericin B]", "values": [
      {"measurement": "time to reduce fungal growth by 50%", "setting": "C. neoformans; clinical isolates from HIV/AIDS patients", "result": "≥ 10", "unit": "h"},
      {"measurement": "MIC", "setting": "[1]", "result": 0.0156, "unit": "µg/mL"},
      {"measurement": "MIC-B, Combination", "setting": "[1]", "result": 0.0156, "unit": "µg/mL"},
      {"measurement": "FIC index (FICi)", "setting": "[1]", "result": 1.50},
      {"measurement": "interaction with AEC5 by FICi", "setting": "[1]", "result": "indifferent (0.5 ≤ FICi ≤ 4 indifferent)"},
      {"measurement": "change of the drug's MIC when combined with AEC5", "setting": "[1]", "result": "does not change"}
    ]},
    {"compound": "Nc1[nH]c(=O)ncc1F", "note": "[Flucytosine, flucytosine]", "values": [
      {"measurement": "MIC", "setting": "[1]", "result": 4, "unit": "µg/mL"},
      {"measurement": "MIC-B, Combination", "setting": "[1]", "result": 0.25, "unit": "µg/mL"},
      {"measurement": "FIC index (FICi)", "setting": "[1]", "result": 0.23},
      {"measurement": "interaction with AEC5 by FICi", "setting": "[1]", "result": "synergistic (FICi < 0.5 synergistic)"}
    ]}
  ]
}
